Reference: patent publication US20090011410A1, “METHOD FOR TAILORING ADMINISTRATION OF DRUGS BY QUANTITATION OF MRNA” (priority 2004, published 2009)

Test system: PUMA mRNA
Experiment: drug-induced PUMA mRNA expression in whole blood of healthy adults
Format: cell-based, human
Conditions: for kinetics of PUMA induction: heparinized whole blood, 0-8 hours at 37° C., 20 μM BLM, 100 μM VP-16 (FIG. 5)
Procedure: In 8-well strip microtubes, 1.4 μl of 50× concentrations of drugs or controls (phosphate buffered saline (PBS) or DMSO) were added, and stored at −20° C. until use. […] Seventy μl of fresh heparinized whole blood was added into each well in triplicate, and incubated at 37° C. for 2-8 hours with the cap closed. For radiation treatment, blood was stimulated at designated doses using cesium-137. After each treatment, 50 μl of whole blood was transferred to filterplates as described below.
The mRNA and cDNA were prepared from whole blood. In brief, home-made 96-well filterplates were placed over collection plates, and 150 μl 5 mM Tris, pH 7.4, was applied. Following centrifugation at 120×g for 1 min at 4° C., 50 μl of blood samples were applied to each well and immediately centrifuged at 120×g for 2 min at 4° C., followed by washing of each well with 300 μl PBS once with centrifugation at 2000×g for 5 min at 4° C. Then, 60 μl stock lysis buffer, containing for example 0.5% N-Lauroylsarcosine, 4×SSC, 10 mM Tris HCl, pH 7.4, 1 mM EDTA, 0.1% IGEPAL CA-630, and 1.791 M guanidine thiocyanate, supplemented with 1% 2-mercaptoethanol (Bio Rad, Hercules, Calif., USA), 0.5 mg/ml proteinase K (Pierce, Rockford, Ill., USA), 0.1 mg/ml salmon sperm DNA (5 Prime Eppendorf/Brinkmann, Westbury, N.Y., USA), 0.1 mg/ml E. coli tRNA (Sigma), a cocktail of 10 mM each of the specific reverse primers shown in Table 1, and standard RNA34 oligonucleotides, were applied to the filterplates, followed by incubation at 37° C. for 10 min. The filterplates were then placed over oligo(dT)-immobilized microplates (GenePlate, RNAture), and centrifuged at 2000×g for 5 min at 4° C. Following overnight storage at 4° C., the microplates were washed with 100 μl plain lysis buffer 3 times, followed by 150 μl of wash buffer (0.5 M NaCl, 10 mM Tris, pH 7.4, 1 mM EDTA) 3 times at 4° C. The cDNA was directly synthesized in each well by adding 30 μl buffer containing 1×RT-buffer, 1.25 mM each of dNTP, 4 units rRNasin, and 80 units of MMLV reverse transcriptase (Promega) (without primers), and incubation at 37° C. for 2 hours. The specific primer-primed cDNA existed in solution, and oligo(dT)-primed cDNA stayed immobilized in the microplate. For TaqMan PCR (FIGS. 1, 3, 4), the resultant 4 μl cDNA solution was directly transferred to 384-well PCR plates, to which 5 μl of TaqMan universal master mix (ABI) and 1 μl oligonucleotide cocktail (15 μM each of forward and reverse primer, and 3-6 μM TaqMan probe) were applied, and PCR was conducted in PRISM 7900HT (ABI), with one cycle of 95° C. for 10 min followed by 45 cycles of 95° C. for 30 sec, 55° C. for 30 sec, and 60° C. for 1 min. For SYBR Green PCR (see FIG. 6), cDNA was diluted 3-4 fold in water, and 4 μl cDNA solution was directly transferred to 384-well PCR plates, to which 5 μl of a master mix (BioRad, Hercules, Calif.) and 1 μl of oligonucleotide cocktail (15 μM each of forward and reverse primer) were applied, and PCR was conducted in PRISM 7900HT (ABI), with one cycle of 95° C. for 10 min followed by 45 cycles of 95° C. for 30 sec and 60° C. for 1 min. Each gene was amplified in separate wells. The Ct was determined by analytical software (SDS, ABI). Although 1×RT buffer was used as a negative control, none of the primer pairs produced non-specific primer-dimers under these experimental conditions. For PUMA in FIG. 8, immobilized cDNA on the oligo(dT)-immobilized microplates was directly amplified in an iCycler (BioRad).
Quantitation of various mRNAs was conducted using the following method. Triplicate aliquots of 50 μl each of heparinized whole blood was applied to 96-well filterplates to trap leukocytes. The filterplates were placed over collection plates, and 150 μl 5 mM Tris, pH 7.4, was applied. […]

[1] = 20 μM BLM or 100 μM VP-16, 4 hours at 37° C. (FIG. 6)

| Compound | PUMA induction [1] | PUMA induction (100 μM VP-16, 2 hours at 37° C. (FIG. 9C)) | kinetics of PUMA induction | concentration at which significant induction of PUMA was observed (0-20 μM BLM, 4 hours at 37° C. (FIG. 7)) | PUMA induction (BLM at concentrations as low as 0.2 μM, 2 hours at 37° C., all cases (FIG. 10C)) |
| --- | --- | --- | --- | --- | --- |
| COc1cc([C@@H]2c3cc4c(cc3[C@@H](O[C@@H]3O[C@@H]5CO[C@@H](C)O[C@H]5[C@H](O)[C@H]3O)[C@H]3COC(=O)[C@H]23)OCO4)cc(OC)c1O [VP-16, etoposide] | responses were confirmed in all individuals | induced | transient induction | – | – |
| bleomycin [BLM] | responses were confirmed in all individuals | – | increased continuously for 8 hours | more than 0.1 VM | induced |
